These results are taken from patent US4450170A, “Treatment of diarrhoea with 2-aminoimidazoline derivatives” (Beecham Group Limited, priority 1980, dated 1984).

Experiment [1] relates to fluid secretion caused by the enterotoxin(s) present in culture filtrate from an enteropathogenic strain of E. coli. In words: animal or person. The class given is in vivo, infant mice. To be noted: for activity in the reduction of fluid secretion (in words): mouse, in vivo.
In experiment [2] the test system is diarrhoea induced by culture filtrate from an enteropathogenic strain of E. coli. Details: species or system 2-4 day old piglets. The conditions noted are these: in vivo, po.
In another experiment the test system is E. coli P16. Put plainly: Inhibition of Diarrhoea Resulting from E. coli Infection (piglets). The class given is in vivo, colostrum deprived piglets. To be noted: Group B, Neomycin 30 mg/Kg po. The procedure:
2-4 day old piglets were dosed with the compound orally 45 mins prior to oral challenge with 25 ml of culture filtrate prepared from an enteropathogenic strain of E. coli. Control animals received drug vehicle 45 mins prior to challenge with a similar volume of material. […] After 6 hours observation some piglets were given a second dose of drug (or placebo) and observations were continued for a further six hours. The percentage inhibition in treated animals was determined as: [formula]
Colostrum deprived piglets were infected with 5 ml of an overnight culture containing 10^8 -10^9 viable E. coli P16/ml. The following day, piglets were matched by weight and scour score and then treated and observed for 6 hours in a similar manner to toxin challenged piglets, as described above.

“And” between values parts separate entries of the source, which are not always exact repeats. Equal values may be shown once. Where a name gives a salt, the structure may show the parent alone.

Take `CCNc1cc(Cl)c(NC2=NCCN2)c(Cl)c1` [R5 H, R6 H, Ra p-NHEt, Rb o-Cl, R11 Cl]: in experiment [1] (Mus musculus, po), the inhibition in vivo (as a rule, the percentage by which the read-out fell short of the control) at 10 mg/kg worked out at 59%; the inhibition in vivo at 50 mg/kg stood at 79%; testing at 200 mg/kg gave an inhibition in vivo of 97%.

In experiment [1] (Mus musculus, po), `Nc1cc(Cl)c(NC2=NCCN2)c(Cl)c1` [p-Amino clonidine dihydrochloride, p-amino Clonidine dihydrochloride] gave an inhibition in vivo at 10 mg/kg of 59% and an inhibition in vivo at 50 mg/kg of 78%. In addition, in experiment [1] (Mus musculus, po, read-out: calculated ED50), the ED50 – broadly, the dose that gives a 50% effect, or the effect in half of the subjects – is 0.25 mg/kg. In addition, in experiment [1], the “activity in the reduction of fluid secretion (in words)” value is given as “high level of activity”. In experiment [2], the “% inhibition of scour” value worked out at 79% and the “Mean Scour Score ± SEM, drug treated” value amounted to 0.4 ± 0.2.

Consider `CN(C)C(=O)C(CCN1CCC(O)(c2ccc(Cl)cc2)CC1)(c1ccccc1)c1ccccc1` [Loperamide, reference compound], for which the “activity in the reduction of fluid secretion (in words)” value in experiment [1] is “considerably less active than the p-amino Clonidine dihydrochloride”.

As to `CN(C1=NCCN1)c1c(Cl)cc(N)cc1Cl` [R5 H, R6 CH3, Ra p-NH2, Rb o-Cl, R11 Cl], in experiment [1] (Mus musculus, po), testing at 10 mg/kg gave an inhibition in vivo of 37%, at 50 mg/kg the inhibition in vivo was 62% and the inhibition in vivo at 200 mg/kg was 72%.

For `Cc1cc(N)cc(C)c1N=C1NCCN1` [Example 13, 2-(4-amino-2,6-dimethylphenylimino)imidazolidine], in experiment [1] (Mus musculus, po), the inhibition in vivo at 10 mg/kg stood at 66%, the inhibition in vivo at 50 mg/kg was determined as 54% and the inhibition in vivo at 200 mg/kg is 69%. In experiment [2], the “% inhibition of scour” value was 78% and 69% and 62%; the “Mean Scour Score ± SEM, drug treated” value was 0.5 ± 0.2 and 0.6 ± 0.3 and 0.6 ± 0.2.

Regarding `NCc1cc(Cl)c(N=C2NCCN2)c(Cl)c1` [Example 14, 2-(4-aminomethyl-2,6-dichlorophenylimino)imidazolidine], in experiment [1] (Mus musculus, po), the inhibition in vivo at 50 mg/kg amounted to 38% and the inhibition in vivo at 200 mg/kg came to 39%.

In experiment [1] (Mus musculus, po), `CCN(CC)Cc1cc(Cl)c(N=C2NCCN2)c(Cl)c1` [Example 15, 2-(2,6-dichloro-4-diethylaminomethylphenylimino)imidazolidine] yielded an inhibition in vivo at 50 mg/kg of 28%, an inhibition in vivo at 200 mg/kg of 37% and an inhibition in vivo at 500 mg/kg of 42%.

For the compound `Nc1cc(Br)c(NC2=NCCN2)c(Br)c1` [Example 12, 2-(4-amino-2,6-dibromophenylimino)imidazolidine], in experiment [1] (Mus musculus, po), the inhibition in vivo at 10 mg/kg came to 48%, the inhibition in vivo at 50 mg/kg was found to be 65% and the inhibition in vivo at 200 mg/kg turned out to be 85%.

In experiment [1] (Mus musculus, po), `Clc1cc(N=C2NCCN2)cc(Cl)c1NC1=NCCN1` [Example 16, 2-(2,6-dichloro-4-imidazolino-2-iminophenylimino)imidazolidine] registered an inhibition in vivo at 100 mg/kg of 29% and an inhibition in vivo at 400 mg/kg of 41%.

For Neomycin, the “% inhibition of scour” value in the experiment on E. coli P16 is 16%. The “Mean Scour Score ± SEM” value in the experiment with E. coli P16 (placebo 2.9 ± 0.1) is recorded as 2.4 ± 0.2. In addition, in the experiment with E. coli P16 (placebo 25%), the “Mortality over 7 days” value was 0%.

In the case of `CNC(=Nc1cc(Cl)c(NC2=NCCN2)c(Cl)c1)NC` [Example 17, 2-[2,6-dichloro-4-(1,3-dimethylguanidino)phenylimino]imidazolidine], in experiment [1] (Mus musculus, po), the inhibition in vivo at 10 mg/kg came to 33%, the inhibition in vivo at 50 mg/kg was found to be 37% and the inhibition in vivo at 200 mg/kg is 53%.
